PMC8205603, “Simultaneous Quantification of Pioglitazone and Omarigliptin in Rat Plasma by UHPLC-MS/MS and Its Application to Pharmacokinetic Study after Coadministration of the Two Drugs” (Journal of Analytical Methods in Chemistry, 2021)
Where a name gives a salt, the structure may show the parent alone. Read-outs that look alike come from different tables or passages of the source. Values belong to the molecule of their own block, whether it stands above or below them.

Tests used:
[1] = Pharmacokinetics study in rats after single or combined intragastric administration; format: in vivo, Sprague-Dawley rats; conditions: plasma, male SD rats
Procedure: Fifteen male Sprague-Dawley rats (6-8 weeks old, 190-210 g) were purchased from Jinan Pengyue Laboratory Animal Technology Co., Ltd. (Jinan, China). The animal certification number was 3707262011004044 and the production license number was SCXK (Lu) 20190003. Before the formal experiment, all rats were adaptively fed for one week at a temperature of 24 ± 2°C and a humidity of 55 ± 5% and then were randomly divided into three groups. In order to guarantee animal welfare, Animal Experiments Guidelines of Yantai Institute of Materia Medica (Yantai, China) was enforced. Pioglitazone and omarigliptin were suspended into 0.5% carboxymethyl cellulose sodium salt (CMC-Na) for intragastric administration. The dosage for rats was calculated based on the clinical dose. […] About 200 μL whole blood was collected into the heparinized tube at 0 min (pre-dose), 15 min, 30 min, 1 […], and 48 h and centrifugated immediately to collect plasma. All plasma samples were frozen at -20°C until analysis. Samples were processed and analyzed by the validated method. Data were acquired and analyzed by Xcalibur 4.1 software (Thermo Fisher Scientific, Massachusetts, USA). Pharmacokinetic parameters were calculated based on noncompartmental model using Phoenix WinNonlin 7.0 (Pharsight, Mountain View, CA). All data were shown as mean ± SD.

[2] = Stability of QC samples in rat plasma under different storage conditions; format: physicochemical; conditions: n = 5
Procedure: Different concentrations of working solutions were diluted 20 times with blank rat plasma to prepare corresponding calibration samples. Final concentrations of calibration samples were 5, 25, 50, 100, 250, 500, 1000, and 2000 ng/mL for pioglitazone and 10, 50, 100, 200, 500, 1000, 2000, and 4000 ng/mL for omarigliptin. Quality control (QC) samples (5, 15, 400, 1500 ng/mL for pioglitazone and 10, 30, 800, 3000 ng/mL for omarigliptin) were prepared as the same way. All plasma samples were stored at −20°C until analysis.
QC samples with low, medium, and high concentrations were analyzed under different conditions, such as kept at room temperature for 6 h, frozen and thawed for three cycles, and frozen at −20°C for 7 days. The postextraction samples were stored in autosampler at 10°C for 24 hours and then reinjected to evaluate the autosampler stability. The measured concentrations were calculated according to the following standard curve. RE (%) and RSD (%) should be within ±15%.

[3] = male, Sprague-Dawley, rat, po, 2.6 mg/kg, omarigliptin 2.6 mg/kg in combination with pioglitazone 2.6 mg/kg, intragastric, n = 5
[4] = male, Sprague-Dawley, rat, po, 2.6 mg/kg, omarigliptin 2.6 mg/kg intragastric, single administration, n = 5
[5] = Auto-sampler stability (10°C for 24 h), postextraction samples, nominal 30 ng/mL omarigliptin
[6] = Auto-sampler stability (10°C for 24 h), postextraction samples, nominal 800 ng/mL omarigliptin
[7] = Auto-sampler stability (10°C for 24 h), postextraction samples, nominal 3000 ng/mL omarigliptin
[8] = Freeze (−20°C for 7 days), rat plasma, nominal 30 ng/mL omarigliptin
[9] = Freeze (−20°C for 7 days), rat plasma, nominal 800 ng/mL omarigliptin
[10] = Freeze (−20°C for 7 days), rat plasma, nominal 3000 ng/mL omarigliptin
[11] = Room temperature for 6 h, rat plasma, nominal 30 ng/mL omarigliptin
[12] = Room temperature for 6 h, rat plasma, nominal 800 ng/mL omarigliptin
[13] = Room temperature for 6 h, rat plasma, nominal 3000 ng/mL omarigliptin
[14] = Three freeze-thaw cycles, rat plasma, nominal 30 ng/mL omarigliptin
[15] = Three freeze-thaw cycles, rat plasma, nominal 800 ng/mL omarigliptin
[16] = Three freeze-thaw cycles, rat plasma, nominal 3000 ng/mL omarigliptin
[17] = male, Sprague-Dawley, rat, po, 2.6 mg/kg, pioglitazone 2.6 mg/kg in combination with omarigliptin 2.6 mg/kg, intragastric, n = 5
[18] = male, Sprague-Dawley, rat, po, 2.6 mg/kg, pioglitazone 2.6 mg/kg intragastric, single administration, n = 5
[19] = Auto-sampler stability (10°C for 24 h), postextraction samples, nominal 15 ng/mL pioglitazone
[20] = Auto-sampler stability (10°C for 24 h), postextraction samples, nominal 400 ng/mL pioglitazone
[21] = Auto-sampler stability (10°C for 24 h), postextraction samples, nominal 1500 ng/mL pioglitazone
[22] = Freeze (−20°C for 7 days), rat plasma, nominal 15 ng/mL pioglitazone
[23] = Freeze (−20°C for 7 days), rat plasma, nominal 400 ng/mL pioglitazone
[24] = Room temperature for 6 h, rat plasma, nominal 15 ng/mL pioglitazone
[25] = Room temperature for 6 h, rat plasma, nominal 400 ng/mL pioglitazone
[26] = Room temperature for 6 h, rat plasma, nominal 1500 ng/mL pioglitazone
[27] = Three freeze-thaw cycles, rat plasma, nominal 15 ng/mL pioglitazone
[28] = Three freeze-thaw cycles, rat plasma, nominal 400 ng/mL pioglitazone
[29] = Three freeze-thaw cycles, rat plasma, nominal 1500 ng/mL pioglitazone

- AUC(0-inf) [1, 3]: 31300 ± 3820 ng·h/mL
- AUC(0-t) [1, 3]: 30400 ± 3760 ng·h/mL
- Cmax [1, 3]: 2520 ± 435 ng/mL
- Tmax ([1]; male, Sprague-Dawley, rat, po, 2.6 mg/kg, omarigliptin 2.6 mg/kg in combination with pioglitazone 2.6 mg/kg, intragastric, n = 5, read-out: t max): 1.8 ± 0.4 h
- AUC(0-inf) [1, 4]: 37700 ± 4100 ng·h/mL
- AUC(0-t) [1, 4]: 36600 ± 4060 ng·h/mL
- Cmax [1, 4]: 3000 ± 394 ng/mL
- Tmax ([1]; male, Sprague-Dawley, rat, po, 2.6 mg/kg, omarigliptin 2.6 mg/kg intragastric, single administration, n = 5, read-out: t max): 1.5 ± 0.7 h
- t 1/2 ([1]; omarigliptin 2.6 mg/kg intragastric, single administration, n = 5): 10.9 ± 0.5 h
- Accuracy (RE %) [2, 5]: 6.70%
- Measured concentrations [2, 5]: 32.01 ± 2.13 ng/mL
- Accuracy (RE %) [2, 6]: −4.69%
- Measured concentrations [2, 6]: 762.47 ± 4.84 ng/mL
- Accuracy (RE %) [2, 7]: −0.09%
- Measured concentrations [2, 7]: 2997.38 ± 9.39 ng/mL
- Accuracy (RE %) [2, 8]: −4.79%
- Measured concentrations [2, 8]: 28.56 ± 0.11 ng/mL
- Accuracy (RE %) [2, 9]: 0.28%
- Measured concentrations [2, 9]: 802.26 ± 4.01 ng/mL
- Accuracy (RE %) [2, 10]: −10.36%
- Measured concentrations [2, 10]: 2689.12 ± 45.57 ng/mL
- Accuracy (RE %) [2, 11]: 0.05%
- Measured concentrations [2, 11]: 30.01 ± 0.40 ng/mL
- Accuracy (RE %) [2, 12]: −7.74%
- Measured concentrations [2, 12]: 738.06 ± 4.52 ng/mL
- Accuracy (RE %) [2, 13]: −2.07%
- Measured concentrations [2, 13]: 2937.89 ± 7.68 ng/mL
- Accuracy (RE %) [2, 14]: −5.13%
- Measured concentrations [2, 14]: 28.46 ± 0.25 ng/mL
- Accuracy (RE %) [2, 15]: −0.68%
- Measured concentrations [2, 15]: 794.54 ± 9.37 ng/mL
- Accuracy (RE %) [2, 16]: −10.98%
- Measured concentrations [2, 16]: 2670.56 ± 16.54 ng/mL
Structure (SMILES): CS(=O)(=O)n1cc2c(n1)CN([C@H]1CO[C@H](c3cc(F)ccc3F)[C@@H](N)C1)C2 [Omarigliptin]

- AUC(0-inf) [1, 17]: 19000 ± 2600 ng·h/mL
- AUC(0-t) [1, 17]: 19000 ± 2580 ng·h/mL
- Cmax [1, 17]: 2460 ± 754 ng/mL
- half-life [1, 17]: 2.1 ± 0.2 h
- AUC(0-inf) [1, 18]: 17000 ± 2130 ng·h/mL
- AUC(0-t) [1, 18]: 16900 ± 2210 ng·h/mL
- Cmax [1, 18]: 2550 ± 475 ng/mL
- half-life [1, 18]: 2.8 ± 1 h
- Tmax ([1]; male, Sprague-Dawley, rat, po, 2.6 mg/kg, pioglitazone 2.6 mg/kg intragastric, single administration, n = 5, read-out: t max): 1.8 ± 0.4 h
- Tmax ([1]; pioglitazone 2.6 mg/kg in combination with omarigliptin 2.6 mg/kg, intragastric, n = 5): 2.0 ± 0 h
- Accuracy (RE %) [2, 19]: 3.95%
- Measured concentrations [2, 19]: 15.59 ± 1.05 ng/mL
- Accuracy (RE %) [2, 20]: −9.17%
- Measured concentrations [2, 20]: 363.31 ± 1.73 ng/mL
- Accuracy (RE %) [2, 21]: −5.24%
- Measured concentrations [2, 21]: 1421.47 ± 7.30 ng/mL
- Accuracy (RE %) [2, 22]: −8.77%
- Measured concentrations [2, 22]: 13.68 ± 0.10 ng/mL
- Accuracy (RE %) [2, 23]: 0.24%
- Measured concentrations [2, 23]: 400.95 ± 1.64 ng/mL
- Measured concentrations ([2]; Freeze (−20°C for 7 days), rat plasma, nominal 1500 ng/mL pioglitazone): 1328.31 ± 5.99 ng/mL
- Accuracy (RE %) [2, 24]: −4.62%
- Measured concentrations [2, 24]: 14.31 ± 0.34 ng/mL
- Accuracy (RE %) [2, 25]: −9.56%
- Measured concentrations [2, 25]: 361.75 ± 1.91 ng/mL
- Accuracy (RE %) [2, 26]: −5.41%
- Measured concentrations [2, 26]: 1418.82 ± 5.26 ng/mL
- Accuracy (RE %) [2, 27]: −8.12%
- Measured concentrations [2, 27]: 13.78 ± 0.11 ng/mL
- Accuracy (RE %) [2, 28]: 0.52%
- Measured concentrations [2, 28]: 402.08 ± 1.11 ng/mL
- Accuracy (RE %) [2, 29]: −11.10%
- Measured concentrations [2, 29]: 1333.57 ± 7.61 ng/mL
Structure (SMILES): CCc1ccc(CCOc2ccc(CC3SC(=O)NC3=O)cc2)nc1 (stereo not drawn) [Pioglitazone, Pioglitazone hydrochloride]
